In US9456997B2, “Selective inhibition of β1-adrenergic receptors for the treatment of pediatric heart failure” (THE REGENTS OF THE UNIVERSITY OF COLORADO, A BODY CORPORATE, priority 2010, dated 2016):
Entries after “also recorded” stand apart in the source; their conditions may differ. Like-named read-outs stand apart in the source and are kept apart here.

Experiments:
β1 and β2 receptors = details: cited from earlier work; for β1 receptor selectivity: in words
[1] = system: HF patients (adult population); details: cited from earlier work
[2] = system: children with heart failure; details: Pediatric Carvedilol Trial, cited from earlier work
[3] = system: isoproterenol challenged young and old mice; assay: Mouse model of pediatric heart failure: cardiac growth (HW/BW) in response to isoproterenol with or without β-blocker; format: in vivo; details: for heart weight to body weight ratio (HW/BW), response to ISO: older mice; for heart weight to body weight ratio (HW/BW), response to ISO / cardiac growth response to ISO (HW/BW): isoproterenol 30 mg/kg/day 7 days, β-blocker in drinking water, versus same age ISO; for pathologic growth response to isoproterenol: isoproterenol 7 days, β-blocker via subcutaneously implanted pump
Experimental: (§1) Since a primary characteristic of human heart failure is endogenous catecholamine (epinephrine and norepinephrine; full β1 and β2 receptor agonists) excess, they challenged the mice with isoproterenol (an exogeous full β1 and β2 receptor agonist) for 7 days using a subcutaneous miniosmotic pump at a dose (30 mg/kg/day) that has previously been associated with cardiac hypertrophy in adult mice and has been used as a model of cardiac hypertrophy and heart failure in adult […]. Higher doses (120 mg/kg/day) for 14 days cause a dilated heart failure phenotype, providing further evidence that this is an appropriate HF model. Half the animals received the isoproterenol treatment and the other half were treated with placebo pumps filled with normal saline and vitamin C, the vehicle that the isoproterenol is dissolved in. The young and old animals were divided into 2 studies: one for carvedilol treatment and one for metoprolol treatment (the study design for each animal study is illustrated in FIG. 8). […] The amount of water consumed was measured on a daily basis and all groups consumed similar amounts of water. In a second study to further support hypothesis (i) above and provide evidence of a class effect among β1-selective antagonists, young mice were divided into 2 studies one for bisoprolol and one for nebivolol. […] After 7 days of treatment, the hearts were removed and assessed for cardiac growth in response to isoproterenol with or without the β-blocker. Protein was isolated from the hearts of young and old mice in the presence or absence of isopreterenol without any β-blocker treatment assessed for phosphorylation of phospholamban by Western blot as outlined above.

caspase 3 = assay: Caspase 3 levels in young mouse hearts by Western blot; format: in vivo; details: young mice, heart, one week of treatment, versus placebo
Experimental: (§2) Western blots were performed as previously described by the inventors. Antibodies for total and phosphorylated PLB were diluted 1:15000 and antibodies for total and phosphorylated Akt were diluted 1:1000 in 1×TBS (20 mM Tris 500 mM NaCl pH 7.5) containing 3% BSA and 0.1% tween and incubated with the blot overnight at 4° C.
(§3) To address hypothesis (iv) above a third study was performed in the young mice to provide evidence of the beneficial effects of exogenous β2-selective agonism with fenoterol. […] The methodology was identical to that outlined in the carvedilol and metoprolol studies above. Protein was isolated from the placebo, fenoterol and isoproterenol treated mouse hearts and phosphorylation of Akt and expression of Caspase 3 was determined to confirm the beneficial effects of fenoterol treatment.

Akt = assay: Phosphorylation of Akt in young mouse hearts by Western blot; format: in vivo; details: young mice, heart, one week of treatment, versus placebo
Experimental: as §2, §3

[4] = system: phospholamban (Ser16, Thr17); assay: Phospholamban phosphorylation in mouse hearts by Western blot; format: in vivo; details: isoproterenol challenged versus control
Experimental: as §2, §1

[5] = system: adult mouse models of myocardial infarction; details: adult mouse models of myocardial infarction (Ahmet, 2004; 2005; 2008); cited from earlier work

## COc1ccccc1OCCNCC(O)COc1cccc2[nH]c3ccccc3c12 (stereo not shown) [Carvedilol]
β1 and β2 receptors; β2 over β1
  blockade of β2 receptors relative to β1 receptors: up to 7 times
[1]; CAPRICORN trial
  Mortality Benefit, RR reduction: 23% RR
[1]; COPERNICUS trial
  Mortality Benefit, RR reduction: 35% RR
[1]; US Coreg HF trial
  Mortality Benefit, RR reduction: 65% RR
[2]; listed as carvedilol
  Outcome (clinical benefit): lack of clinical benefit
[2]
  Outcome (clinical benefit): no clinical benefit
[3]
  heart weight to body weight ratio (HW/BW), response to ISO: lower
[3]; young mice
  cardiac growth response to ISO (HW/BW): no benefit
[3]; young mice, listed as Coreg
  cardiac growth response to ISO (HW/BW): no influence

## CC(C)NCC(O)c1ccc(O)c(O)c1 (stereo not shown) [Isoproterenol, isoproterenol]
Caspase 3
  caspase 3 levels: increased
Akt
  phosphorylation of Akt: decreased
[4]; old (adult) mice
  phospholamban phosphorylation at serine 16: dephosphorylated; also recorded: lower
  phospholamban phosphorylation at threonine 17: dephosphorylated; also recorded: lower
[4]; young mice
  phospholamban phosphorylation at serine 16: unchanged
  phospholamban phosphorylation at threonine 17: unchanged
[3]; young and old mice, 30 mg/kg/day for 7 days, subcutaneous miniosmotic pump
  pathologic cardiac growth produced by the agonist: significant pathologic cardiac growth
[3]; young mice, placebo (no β-blocker) treated animals, bisoprolol and nebivolol cohorts
  growth response elicited by the agonist: significant growth response

## CC(C)NCC(O)COc1ccc(COCCOC(C)C)cc1 (stereo not shown) [Bisoprolol]
β1 and β2 receptors
  β1 receptor selectivity: higher selectivity than Metoprolol
[1]; CIBIS trial
  Mortality Benefit, RR reduction: 32% RR
[3]; young mice
  pathologic growth response to isoproterenol: significantly suppressed
[3]; young mice, listed as bisoprolol
  pathologic growth response to isoproterenol: significant blunting

## OC(CNCC(O)C1CCc2cc(F)ccc2O1)C1CCc2cc(F)ccc2O1 (stereo not shown) [Nebivolol]
β1 and β2 receptors
  β1 receptor selectivity: higher selectivity than Metoprolol
[1]; SENIORS trial
  Mortality or Hospitalization Benefit, RR reduction: 14% RR
[3]; young mice
  pathologic growth response to isoproterenol: significantly suppressed
[3]; young mice, listed as nebivolol
  pathologic growth response to isoproterenol: significant blunting

## COCCc1ccc(OCC(O)CNC(C)C)cc1 (stereo not shown) [Metoprolol]
β1 and β2 receptors
  β1 receptor selectivity: selectively blocks the β1 receptor
[1]; MERIT-HF trial
  Mortality Benefit, RR reduction: 34% RR
[3]
  heart weight to body weight ratio (HW/BW), response to ISO: lower
[3]; young mice
  cardiac growth response to ISO (HW/BW): blunted
[3]; young mice, listed as metoprolol
  cardiac growth response to ISO (HW/BW): demonstrated benefit

## CC(Cc1ccc(O)cc1)NCC(O)c1cc(O)cc(O)c1 (stereo not shown) [Fenoterol, fenoterol]
Caspase 3; listed as fenoterol
  caspase 3 levels: maintaining only basal levels; also recorded: did not induce
[5]
  myocardial remodeling and function: improvements in myocardial remodeling and function
Akt
  phosphorylation of Akt: induced
Akt; listed as fenoterol
  phosphorylation of Akt: increasing
